Test results reported in ChEMBL document CHEMBL5653631, “A Potent and Selective ULK1 Inhibitor Suppresses Autophagy and Sensitizes Cancer Cells to Nutrient Stress” (iScience, 2018).
Blank lines part the entries; values can stand above or below the molecule they belong to.

What was measured:
[1] = biological target: Casein kinase II subunit alpha' (Homo sapiens) (UniProt P19784); assay: Inhibition of human recombinant CK2a2 at 500 nM in presence of ATP by radiometric assay relative to control
[2] = biological target: Death-associated protein kinase 2 (Homo sapiens) (UniProt Q9UIK4); assay: Inhibition of human recombinant DAPK2 at 500 nM related to control ULK1
[3] = biological target: Tyrosine-protein kinase FRK (Homo sapiens) (UniProt P42685); assay: Inhibition of human recombinant FRK at 500 nM related to control ULK1
[4] = biological target: T1, Serine/threonine-protein kinase TBK1 (Homo sapiens) (UniProt Q9UHD2); assay: Inhibition of human recombinant TBK1 at 500 nM in presence of ATP by radiometric assay relative to control
T1 sequence (whole entry): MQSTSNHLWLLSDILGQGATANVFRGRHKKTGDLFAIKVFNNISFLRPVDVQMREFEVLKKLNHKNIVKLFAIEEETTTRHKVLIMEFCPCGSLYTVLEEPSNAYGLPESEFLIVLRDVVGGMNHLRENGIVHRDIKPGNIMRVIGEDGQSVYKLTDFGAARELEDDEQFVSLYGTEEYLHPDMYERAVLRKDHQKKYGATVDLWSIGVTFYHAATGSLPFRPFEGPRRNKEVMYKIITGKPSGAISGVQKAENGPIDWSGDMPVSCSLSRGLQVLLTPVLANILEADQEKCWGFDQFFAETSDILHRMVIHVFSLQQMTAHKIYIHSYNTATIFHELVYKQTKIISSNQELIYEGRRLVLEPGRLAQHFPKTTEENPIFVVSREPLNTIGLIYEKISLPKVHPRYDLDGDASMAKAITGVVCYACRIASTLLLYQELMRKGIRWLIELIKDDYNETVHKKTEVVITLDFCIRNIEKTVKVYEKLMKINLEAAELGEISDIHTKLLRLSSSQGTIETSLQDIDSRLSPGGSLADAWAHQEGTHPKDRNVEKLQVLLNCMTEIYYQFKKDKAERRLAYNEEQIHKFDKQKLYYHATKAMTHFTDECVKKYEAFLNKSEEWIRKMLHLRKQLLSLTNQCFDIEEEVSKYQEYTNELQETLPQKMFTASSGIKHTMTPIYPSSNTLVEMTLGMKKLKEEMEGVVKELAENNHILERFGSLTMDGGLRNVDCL

[5] = biological target: T2, Mitogen-activated protein kinase 12 (Homo sapiens) (UniProt P53778); assay: Inhibition of human recombinant p38gamma at 500 nM related to control ULK1
T2 sequence (whole entry): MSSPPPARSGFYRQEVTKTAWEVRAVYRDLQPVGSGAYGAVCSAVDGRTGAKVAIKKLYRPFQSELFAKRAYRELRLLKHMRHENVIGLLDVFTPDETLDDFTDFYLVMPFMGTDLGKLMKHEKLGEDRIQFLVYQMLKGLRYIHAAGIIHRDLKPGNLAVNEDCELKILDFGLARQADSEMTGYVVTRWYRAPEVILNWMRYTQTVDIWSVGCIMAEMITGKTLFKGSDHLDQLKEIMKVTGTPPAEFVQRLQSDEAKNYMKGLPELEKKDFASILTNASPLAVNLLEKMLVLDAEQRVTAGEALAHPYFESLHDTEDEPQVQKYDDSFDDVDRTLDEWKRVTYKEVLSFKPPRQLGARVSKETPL

[6] = biological target: Proto-oncogene tyrosine-protein kinase ROS (Homo sapiens) (UniProt P08922); assay: Inhibition of human recombinant ROS at 500 nM in presence of ATP by radiometric assay relative to control
Proto-oncogene tyrosine-protein kinase ROS (Homo sapiens), sequence (P08922 whole entry): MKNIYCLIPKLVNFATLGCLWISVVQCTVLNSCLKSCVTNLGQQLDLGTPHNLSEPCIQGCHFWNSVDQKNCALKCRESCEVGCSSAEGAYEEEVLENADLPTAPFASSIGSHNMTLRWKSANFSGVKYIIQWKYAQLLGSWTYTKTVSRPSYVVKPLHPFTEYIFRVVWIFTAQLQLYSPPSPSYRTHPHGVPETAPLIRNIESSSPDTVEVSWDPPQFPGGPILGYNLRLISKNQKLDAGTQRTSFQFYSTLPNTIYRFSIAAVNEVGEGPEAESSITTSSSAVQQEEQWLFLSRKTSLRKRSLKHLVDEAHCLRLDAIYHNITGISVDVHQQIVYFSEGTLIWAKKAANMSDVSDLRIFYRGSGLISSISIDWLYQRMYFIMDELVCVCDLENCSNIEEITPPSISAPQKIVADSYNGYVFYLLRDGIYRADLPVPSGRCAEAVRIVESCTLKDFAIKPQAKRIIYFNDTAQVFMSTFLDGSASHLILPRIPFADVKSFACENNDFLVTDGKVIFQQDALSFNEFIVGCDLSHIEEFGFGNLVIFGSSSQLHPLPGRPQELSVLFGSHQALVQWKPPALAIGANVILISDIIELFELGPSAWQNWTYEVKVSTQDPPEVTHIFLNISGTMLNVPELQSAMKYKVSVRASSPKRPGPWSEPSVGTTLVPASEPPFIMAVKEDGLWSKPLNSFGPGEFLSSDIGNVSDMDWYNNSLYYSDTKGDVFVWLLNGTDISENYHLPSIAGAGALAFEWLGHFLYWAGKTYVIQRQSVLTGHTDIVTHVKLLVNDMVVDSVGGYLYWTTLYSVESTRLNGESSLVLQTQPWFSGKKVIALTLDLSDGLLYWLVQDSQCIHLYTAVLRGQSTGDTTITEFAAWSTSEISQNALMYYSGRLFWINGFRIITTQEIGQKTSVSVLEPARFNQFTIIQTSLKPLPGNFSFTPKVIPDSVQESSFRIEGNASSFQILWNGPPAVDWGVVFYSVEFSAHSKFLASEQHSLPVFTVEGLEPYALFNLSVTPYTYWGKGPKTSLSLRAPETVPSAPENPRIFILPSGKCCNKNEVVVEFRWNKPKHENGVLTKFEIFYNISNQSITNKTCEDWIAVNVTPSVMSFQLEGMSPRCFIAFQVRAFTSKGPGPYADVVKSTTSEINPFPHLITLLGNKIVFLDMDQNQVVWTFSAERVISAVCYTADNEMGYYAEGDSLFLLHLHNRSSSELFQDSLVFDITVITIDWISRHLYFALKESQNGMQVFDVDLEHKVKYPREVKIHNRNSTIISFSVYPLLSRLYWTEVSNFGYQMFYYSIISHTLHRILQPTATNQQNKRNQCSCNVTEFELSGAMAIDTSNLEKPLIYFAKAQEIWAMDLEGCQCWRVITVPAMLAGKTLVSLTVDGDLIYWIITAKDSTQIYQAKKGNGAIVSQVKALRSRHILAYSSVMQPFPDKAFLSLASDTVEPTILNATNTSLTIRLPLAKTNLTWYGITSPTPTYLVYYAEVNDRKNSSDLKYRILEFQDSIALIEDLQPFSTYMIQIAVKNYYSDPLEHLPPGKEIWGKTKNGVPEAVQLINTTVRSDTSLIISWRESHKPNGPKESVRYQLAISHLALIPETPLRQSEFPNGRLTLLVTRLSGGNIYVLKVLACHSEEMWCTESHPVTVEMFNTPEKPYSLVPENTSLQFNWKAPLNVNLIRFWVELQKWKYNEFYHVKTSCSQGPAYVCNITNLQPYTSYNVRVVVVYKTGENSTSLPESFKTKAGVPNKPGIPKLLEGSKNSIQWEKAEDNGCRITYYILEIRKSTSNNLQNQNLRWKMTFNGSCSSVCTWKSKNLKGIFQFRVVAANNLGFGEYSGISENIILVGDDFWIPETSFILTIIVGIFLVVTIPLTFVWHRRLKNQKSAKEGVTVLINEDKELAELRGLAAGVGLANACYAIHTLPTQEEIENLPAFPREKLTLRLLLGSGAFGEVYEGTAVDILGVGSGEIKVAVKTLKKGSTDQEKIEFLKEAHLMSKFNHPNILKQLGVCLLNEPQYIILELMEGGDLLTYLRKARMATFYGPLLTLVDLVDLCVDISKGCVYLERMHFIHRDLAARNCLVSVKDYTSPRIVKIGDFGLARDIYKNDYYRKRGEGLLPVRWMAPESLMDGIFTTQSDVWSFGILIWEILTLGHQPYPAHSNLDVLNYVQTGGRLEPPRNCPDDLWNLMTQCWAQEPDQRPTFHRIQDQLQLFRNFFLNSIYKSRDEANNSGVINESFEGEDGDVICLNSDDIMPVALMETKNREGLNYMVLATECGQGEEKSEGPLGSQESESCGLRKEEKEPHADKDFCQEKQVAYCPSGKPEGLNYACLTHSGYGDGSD

[7] = biological target: Calcium/calmodulin-dependent protein kinase type II subunit delta (Homo sapiens) (UniProt Q13557); assay: Inhibition of human recombinant CaMK2d at 15 nM related to control ULK1
Calcium/calmodulin-dependent protein kinase type II subunit delta (Homo sapiens), sequence (Q13557 whole entry): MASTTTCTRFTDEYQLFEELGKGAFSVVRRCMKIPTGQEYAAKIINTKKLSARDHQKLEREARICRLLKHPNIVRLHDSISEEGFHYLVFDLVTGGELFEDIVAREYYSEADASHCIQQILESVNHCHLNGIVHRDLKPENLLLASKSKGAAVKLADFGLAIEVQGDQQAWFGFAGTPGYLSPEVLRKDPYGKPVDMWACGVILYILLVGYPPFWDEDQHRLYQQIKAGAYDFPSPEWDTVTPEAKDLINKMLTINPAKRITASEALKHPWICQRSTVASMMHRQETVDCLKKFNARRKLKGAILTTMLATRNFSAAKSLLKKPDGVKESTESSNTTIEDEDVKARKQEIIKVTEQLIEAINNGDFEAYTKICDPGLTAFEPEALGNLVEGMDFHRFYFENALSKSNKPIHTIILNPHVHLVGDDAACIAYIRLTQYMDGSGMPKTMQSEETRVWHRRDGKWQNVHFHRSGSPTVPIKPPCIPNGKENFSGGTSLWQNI

[8] = biological target: SRSF protein kinase 1 (Homo sapiens) (UniProt Q96SB4); assay: Inhibition of human recombinant SRPK1 at 15 nM related to control ULK1
[9] = biological target: Death-associated protein kinase 3 (Homo sapiens) (UniProt O43293); assay: Inhibition of human recombinant DAPK3 at 15 nM related to control ULK1
Death-associated protein kinase 3 (Homo sapiens), sequence (O43293 whole entry, looked up): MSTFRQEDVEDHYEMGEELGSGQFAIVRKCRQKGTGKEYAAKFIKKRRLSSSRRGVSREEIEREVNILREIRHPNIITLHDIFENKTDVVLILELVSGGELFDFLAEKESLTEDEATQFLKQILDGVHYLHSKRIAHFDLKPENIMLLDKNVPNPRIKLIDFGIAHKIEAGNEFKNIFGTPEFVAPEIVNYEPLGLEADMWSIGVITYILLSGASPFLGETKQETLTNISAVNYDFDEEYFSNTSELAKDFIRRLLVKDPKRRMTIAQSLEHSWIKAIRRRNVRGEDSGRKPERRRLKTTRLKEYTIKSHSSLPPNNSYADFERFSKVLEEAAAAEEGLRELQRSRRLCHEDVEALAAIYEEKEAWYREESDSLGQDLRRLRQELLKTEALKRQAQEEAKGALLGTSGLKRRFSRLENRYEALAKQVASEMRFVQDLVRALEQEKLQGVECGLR

[10] = biological target: Dual specificity tyrosine-phosphorylation-regulated kinase 1B (Homo sapiens) (UniProt Q9Y463); assay: Inhibition of human recombinant DYRK1B at 15 nM related to control ULK1
Dual specificity tyrosine-phosphorylation-regulated kinase 1B (Homo sapiens), sequence (Q9Y463 whole entry, looked up): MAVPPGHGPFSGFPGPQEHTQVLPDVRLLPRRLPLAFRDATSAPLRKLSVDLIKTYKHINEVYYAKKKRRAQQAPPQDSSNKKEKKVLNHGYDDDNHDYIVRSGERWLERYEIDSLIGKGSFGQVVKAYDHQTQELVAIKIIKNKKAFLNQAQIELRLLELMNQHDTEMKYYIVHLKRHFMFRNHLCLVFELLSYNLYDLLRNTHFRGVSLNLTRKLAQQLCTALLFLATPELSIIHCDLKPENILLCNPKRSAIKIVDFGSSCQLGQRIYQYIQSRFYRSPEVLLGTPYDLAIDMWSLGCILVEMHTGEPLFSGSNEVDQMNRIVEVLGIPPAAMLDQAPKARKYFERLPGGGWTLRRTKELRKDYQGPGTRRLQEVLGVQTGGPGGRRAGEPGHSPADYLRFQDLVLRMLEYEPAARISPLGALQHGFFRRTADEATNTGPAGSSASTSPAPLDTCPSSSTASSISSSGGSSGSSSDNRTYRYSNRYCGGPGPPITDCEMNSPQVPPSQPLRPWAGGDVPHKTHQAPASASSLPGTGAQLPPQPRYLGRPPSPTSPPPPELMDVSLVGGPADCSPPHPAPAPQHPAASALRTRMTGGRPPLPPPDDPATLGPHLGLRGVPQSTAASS

[11] = biological target: T3, Ephrin type-A receptor 8 (Homo sapiens) (UniProt P29322); assay: Inhibition of human recombinant EphA8 at 40 nM related to control ULK1
T3 sequence (whole entry): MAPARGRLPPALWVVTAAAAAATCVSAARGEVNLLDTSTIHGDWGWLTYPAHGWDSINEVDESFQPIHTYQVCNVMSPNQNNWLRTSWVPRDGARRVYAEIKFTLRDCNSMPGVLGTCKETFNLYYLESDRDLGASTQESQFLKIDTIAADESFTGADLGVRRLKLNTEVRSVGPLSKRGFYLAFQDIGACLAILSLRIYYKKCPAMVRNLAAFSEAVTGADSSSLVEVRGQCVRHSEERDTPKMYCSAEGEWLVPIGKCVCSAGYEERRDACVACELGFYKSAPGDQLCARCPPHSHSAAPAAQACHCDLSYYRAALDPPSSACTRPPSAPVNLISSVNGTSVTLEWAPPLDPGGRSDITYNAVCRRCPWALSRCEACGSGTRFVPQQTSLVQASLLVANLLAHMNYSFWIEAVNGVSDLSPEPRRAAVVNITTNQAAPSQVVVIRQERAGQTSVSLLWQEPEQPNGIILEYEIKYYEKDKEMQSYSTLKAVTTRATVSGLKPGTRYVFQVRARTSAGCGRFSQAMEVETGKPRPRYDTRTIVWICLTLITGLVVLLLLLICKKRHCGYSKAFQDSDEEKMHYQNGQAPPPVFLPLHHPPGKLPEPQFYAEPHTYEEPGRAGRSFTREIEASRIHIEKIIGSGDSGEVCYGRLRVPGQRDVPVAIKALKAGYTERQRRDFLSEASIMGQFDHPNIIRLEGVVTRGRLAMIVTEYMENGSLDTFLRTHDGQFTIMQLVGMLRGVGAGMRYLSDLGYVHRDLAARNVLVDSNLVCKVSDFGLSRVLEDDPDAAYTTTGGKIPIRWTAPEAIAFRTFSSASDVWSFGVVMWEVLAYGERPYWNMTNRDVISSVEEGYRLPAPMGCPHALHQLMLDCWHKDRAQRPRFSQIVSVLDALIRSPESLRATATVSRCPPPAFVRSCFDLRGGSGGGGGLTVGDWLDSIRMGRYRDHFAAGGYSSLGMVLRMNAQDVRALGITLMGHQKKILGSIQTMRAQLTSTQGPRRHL

[12] = biological target: Serine/threonine-protein kinase 35 (Homo sapiens) (UniProt Q8TDR2); assay: Inhibition of human recombinant CLIK1 at 40 nM related to control ULK1
Serine/threonine-protein kinase 35 (Homo sapiens), sequence (Q8TDR2 whole entry): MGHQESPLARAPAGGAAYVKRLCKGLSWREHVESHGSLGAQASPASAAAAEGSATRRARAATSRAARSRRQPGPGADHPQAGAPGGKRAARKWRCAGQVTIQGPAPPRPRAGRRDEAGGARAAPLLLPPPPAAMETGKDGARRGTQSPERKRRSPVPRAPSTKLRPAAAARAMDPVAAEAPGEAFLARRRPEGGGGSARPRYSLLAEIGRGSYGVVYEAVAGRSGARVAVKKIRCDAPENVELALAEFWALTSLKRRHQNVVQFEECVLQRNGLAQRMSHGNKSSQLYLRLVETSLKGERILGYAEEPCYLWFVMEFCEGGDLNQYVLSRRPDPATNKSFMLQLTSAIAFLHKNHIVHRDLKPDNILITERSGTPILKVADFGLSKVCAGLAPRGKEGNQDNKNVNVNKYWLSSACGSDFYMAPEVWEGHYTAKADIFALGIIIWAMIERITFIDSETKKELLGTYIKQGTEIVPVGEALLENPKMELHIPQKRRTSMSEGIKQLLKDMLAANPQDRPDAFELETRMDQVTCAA

[13] = biological target: Tyrosine-protein kinase Tec (Homo sapiens) (UniProt P42680); assay: Inhibition of human recombinant TEC at 40 nM related to control ULK1
[14] = biological target: Misshapen-like kinase 1 (Homo sapiens) (UniProt Q8N4C8); assay: Inhibition of human recombinant MINK at 40 nM related to control ULK1

Casein kinase II subunit alpha' (Homo sapiens), sequence (P19784 whole entry, looked up): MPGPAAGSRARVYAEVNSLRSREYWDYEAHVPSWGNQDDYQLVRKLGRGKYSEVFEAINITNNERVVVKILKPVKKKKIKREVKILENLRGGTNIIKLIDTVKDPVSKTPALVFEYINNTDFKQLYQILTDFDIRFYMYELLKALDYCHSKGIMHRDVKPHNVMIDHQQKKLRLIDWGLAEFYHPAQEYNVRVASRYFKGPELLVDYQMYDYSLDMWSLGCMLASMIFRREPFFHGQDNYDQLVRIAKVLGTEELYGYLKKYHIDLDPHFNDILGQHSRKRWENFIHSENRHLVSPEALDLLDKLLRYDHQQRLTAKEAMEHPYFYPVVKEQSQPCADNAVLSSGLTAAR

inhibition [1]: 5%
fold change (FC) [3]: 0.12
inhibition [4]: 0%
fold change (FC) [5]: 0
inhibition [6]: 0%
SMILES: CNC(=O)c1ccccc1Oc1nc(Nc2cc(OC)c(OC)c(OC)c2)ncc1Br
fold change (FC) [2]: 0

fold change (FC) [7]: 0.23
fold change (FC) [8]: 0
fold change (FC) [10]: 0.74
SMILES: CC(C)[C@H](NC(=O)c1cc(-c2cnn3cc(-c4ccc(OCCN5CCCCC5)cc4)cnc23)cs1)C(F)(F)F
fold change (FC) [9]: 0

fold change (FC) [11]: 0
fold change (FC) [12]: 0.01
fold change (FC) [13]: 0
fold change (FC) [14]: 0.1
SMILES: O=C(N[C@@H](C1CC1)C(F)(F)F)c1cc(-c2cnn3cc(-c4ccc(F)cc4)cnc23)cs1
